This assay concerns M. tuberculosis W4-E1-GFP (Mutant). Type of assay: cell-based, Mycobacterium tuberculosis. The note with it: read-out: EC50_Mutant.

This note sets out measurements from patent US11253499B2, “Compounds” (priority 2017, dated 2022).

With `O=C(CCC(F)(F)F)N1CC(c2ccc(F)cc2)C1` [Example 1, 4,4,4-trifluoro-1-[3-(4-fluorophenyl)azetidin-1-yl]butan-1-one], the EC50 is below 50 nM. As to `O=C(CCC(F)(F)F)N1CC(c2cccc(C(F)(F)F)c2)C1` [Example 2, 4,4,4-trifluoro-1-[3-[3-(trifluoromethyl)phenyl]azetidin-1-yl]butan-1-one], the EC50 is 50 to 250 nM. Turning to `O=C(CCC(F)(F)F)N1CC(c2ccncc2)C1` [Example 30, 4,4,4-trifluoro-1-[3-(4-pyridyl)azetidin-1-yl]butan-1-one], the EC50 lay in the range of 1000 to 10000 nM. Turning to `O=C(CCC(F)(F)F)N1CC(F)(c2ccc(F)cc2)C1` [Example 44, 4,4,4-trifluoro-1-(3-fluoro-3-(4-fluorophenyl)azetidin-1-yl)butan-1-one], the EC50 was below 50 nM. Regarding `O=C(CCC(F)(F)F)N1CC(c2ccnc(Cl)c2)C1` [Example 32, 1-[3-(2-chloro-4-pyridyl)azetidin-1-yl]-4,4,4-trifluoro-butan-1-one], the EC50 fell in the range of 1000 to 10000 nM. Turning to `O=C(CCC(F)(F)F)N1CC(c2cccc(F)c2)C1` [Example 29, 4,4,4-trifluoro-1-[3-(3-fluorophenyl)azetidin-1-yl]butan-1-one], the EC50 lay within 50 to 250 nM.

Take `O=C(CCC(F)(F)F)N1CC(c2ccc(C(F)(F)F)cc2)C1` [Example 16]: the EC50 lay within 250 to 500 nM. For the compound `O=C(CCC(F)(F)F)N1CC(c2ccc(OC(F)(F)F)cc2)C1` [Example 14, 4,4,4-trifluoro-1-[3-[4-(trifluoromethoxy)phenyl]azetidin-1-yl]butan-1-one], the EC50 was 1000 to 10000 nM.

As to `O=C(CCC(F)(F)F)N1CC(c2cc(F)c(F)c(F)c2)C1` [Example 34, 4,4,4-trifluoro-1-[3-(3,4,5-trifluorophenyl)azetidin-1-yl]butan-1-one], the EC50 lay within 50 to 250 nM. Regarding `O=C(CCC(F)(F)F)N1CC(c2cncc(Cl)c2)C1` [Example 23, 1-[3-(5-chloro-3-pyridyl)azetidin-1-yl]-4,4,4-trifluoro-butan-1-one], the EC50 was 1000 to 10000 nM. On to `O=C(CCC(F)(F)F)N1CC(N2CCC(F)(F)CC2)C1` [Example 35, 1-[3-(4,4-difluoro-1-piperidyl)azetidin-1-yl]-4,4,4-trifluoro-butan-1-one], for which the EC50 lay within 500 to 1000 nM. On to `O=C(CCC(F)(F)F)N1CC(c2cccc(OC(F)(F)F)c2)C1` [Example 15, 4,4,4-trifluoro-1-[3-[3-(trifluoromethoxy)phenyl]azetidin-1-yl]butan-1-one], for which the EC50 is 50 to 250 nM. For `Cc1cc(F)ccc1C1CN(C(=O)CCC(F)(F)F)C1` [Example 28, 4,4,4-trifluoro-1-[3-(4-fluoro-2-methyl-phenyl)azetidin-1-yl]butan-1-one], the EC50 was in the range of 250 to 500 nM. As for `O=C(CCC(F)(F)F)N1CC(c2ccc(Cl)nc2)C1` [Example 19], the EC50 lay in the range of 1000 to 10000 nM. As to `O=C(CCC(F)(F)F)N1CC(c2cc(C(F)(F)F)ccn2)C1` [Example 7, 4,4,4-trifluoro-1-[3-[4-(trifluoromethyl)-2-pyridyl]azetidin-1-yl]butan-1-one], the EC50 was in the range of 250 to 500 nM. Take `O=C(CCC(F)(F)F)N1CC(c2cccc(Cl)c2)C1` [Example 17, 1-[3-(3-chlorophenyl)azetidin-1-yl]-4,4,4-trifluoro-butan-1-one]: the EC50 is below 50 nM.

On to `CC1(c2ccc(F)cc2)CN(C(=O)CCC(F)(F)F)C1` [Example 42, 4,4,4-trifluoro-1-(3-(4-fluorophenyl)-3-methylazetidin-1-yl)butan-1-one], for which the EC50 fell in the range of 50 to 250 nM. Turning to `O=C(CCC(F)(F)F)N1CC(N2CCCCC2)C1` [Example 39, 4,4,4-trifluoro-1-(3-(piperidin-1-yl)azetidin-1-yl)butan-1-one], the EC50 is 1000 to 10000 nM. As to `O=C(CCC(F)(F)F)N1CC(c2ccc(C(F)(F)F)nc2)C1` [Example 21, 4,4,4-trifluoro-1-[3-[6-(trifluoromethyl)-3-pyridyl]azetidin-1-yl]butan-1-one], the EC50 fell in the range of 1000 to 10000 nM.

With `COC1(c2ccc(F)cc2)CN(C(=O)CCC(F)(F)F)C1` [Example 41, 4,4,4-trifluoro-1-(3-(4-fluorophenyl)-3-methoxyazetidin-1-yl)butan-1-one], the EC50 lay within 50 to 250 nM. `O=C(CCC(F)(F)F)N1CC(c2ccc(F)cc2C(F)(F)F)C1` [Example 25, 4,4,4-trifluoro-1-[3-[4-fluoro-2-(trifluoromethyl)phenyl]azetidin-1-yl]butan-1-one]: the EC50 lay in the range of 250 to 500 nM. In the case of `COc1ccc(C2CN(C(=O)CCC(F)(F)F)C2)cn1` [Example 22, 4,4,4-trifluoro-1-[3-(6-methoxy-3-pyridyl)azetidin-1-yl]butan-1-one], the EC50 is 50 to 250 nM. As for `O=C(CCC(F)(F)F)N1CC(c2ccc(F)cc2F)C1` [Example 18, 1-[3-(2,4-difluorophenyl)azetidin-1-yl]-4,4,4-trifluoro-butan-1-one], the EC50 was below 50 nM. As for `O=C(CCC(F)(F)F)N1CC(c2ccc(C(F)(F)F)cn2)C1` [Example 8, 4,4,4-trifluoro-1-[3-[5-(trifluoromethyl)-2-pyridyl]azetidin-1-yl]butan-1-one], the EC50 lay within 500 to 1000 nM.

With `O=C(CCC(F)(F)F)N1CC(C2CCOCC2)C1` [Example 38, 4,4,4-trifluoro-1-(3-(tetrahydro-2H-pyran-4-yl)azetidin-1-yl)butan-1-one], the EC50 lay in the range of 1000 to 10000 nM. In the case of `O=C(CCC(F)(F)F)N1CC(c2ncc(F)cc2F)C1` [Example 10, 1-[3-(3,5-difluoro-2-pyridyl)azetidin-1-yl]-4,4,4-trifluoro-butan-1-one], the EC50 lay in the range of 250 to 500 nM.

Consider `N#Cc1ccc(C2CN(C(=O)CCC(F)(F)F)C2)cc1` [Example 43, 4-(1-(4,4,4-trifluorobutanoyl)azetidin-3-yl)benzonitrile], for which the EC50 fell in the range of 1000 to 10000 nM. As to `O=C(CCC(F)(F)F)N1CC(c2ccc(Cl)cc2)C1` [Example 13, 1-[3-(4-chlorophenyl)azetidin-1-yl]-4,4,4-trifluoro-butan-1-one], the EC50 lay within 50 to 250 nM. For `CC(C)Oc1ccc(C2CN(C(=O)CCC(F)(F)F)C2)cn1` [Example 36, 4,4,4-trifluoro-1-[3-(6-isopropoxy-3-pyridyl)azetidin-1-yl]butan-1-one], the EC50 is 1000 to 10000 nM. Take `O=C(CCC(F)(F)F)N1CC(c2cccnc2)C1` [Example 26, 4,4,4-trifluoro-1-[3-(3-pyridyl)azetidin-1-yl]butan-1-one]: the EC50 lay in the range of 1000 to 10000 nM. As for `O=C(CCC(F)(F)F)N1CC(C2CC2)C1` [Example 4, 1-(3-cyclopropylazetidin-1-yl)-4,4,4-trifluoro-butan-1-one], the EC50 lay in the range of 500 to 1000 nM.

`O=C(CCC(F)(F)F)N1CC(c2ccnc(C(F)(F)F)c2)C1` [Example 12, 4,4,4-trifluoro-1-[3-[2-(trifluoromethyl)-4-pyridyl]azetidin-1-yl]butan-1-one]: the EC50 lay in the range of 1000 to 10000 nM. For the compound `O=C(CCC(F)(F)F)N1CC(c2ccnc(F)c2)C1` [Example 31, 4,4,4-trifluoro-1-[3-(2-fluoro-4-pyridyl)azetidin-1-yl]butan-1-one], the EC50 is 1000 to 10000 nM.

`O=C(CCC(F)(F)F)N1CC(c2ccc(F)nc2)C1` [Example 33, 4,4,4-trifluoro-1-[3-(6-fluoro-3-pyridyl)azetidin-1-yl]butan-1-one]: the EC50 lay within 1000 to 10000 nM. With `O=C(CCC(F)(F)F)N1CC(c2ccc(F)cc2Cl)C1` [Example 20, 1-[3-(2-chloro-4-fluoro-phenyl)azetidin-1-yl]-4,4,4-trifluoro-butan-1-one] the figure was 50 to 250 nM; with `O=C(CCCC(F)(F)F)N1CC(c2ccc(F)cc2)C1` [Example 3, 5,5,5-trifluoro-1-[3-(4-fluorophenyl)azetidin-1-yl]pentan-1-one], 50 to 250 nM; with `O=C(CCC(F)(F)F)N1CC(C2CCCCC2)C1` [Example 6, 1-(3-cyclohexylazetidin-1-yl)-4,4,4-trifluoro-butan-1-one], below 50 nM. Turning to `O=C(CCC(F)(F)F)N1CC(c2cncc(C(F)(F)F)c2)C1` [Example 24, 4,4,4-trifluoro-1-[3-[5-(trifluoromethyl)-3-pyridyl]azetidin-1-yl]butan-1-one], the EC50 is 1000 to 10000 nM. To `O=C(CCC(F)(F)F)N1CC(c2ccc(OCC(F)(F)F)nc2)C1` [Example 37, 4,4,4-trifluoro-1-[3-[6-(2,2,2-trifluoroethoxy)-3-pyridyl]azetidin-1-yl]butan-1-one] belongs 1000 to 10000 nM; to `O=C(CCC(F)(F)F)N1CC(c2cc(Cl)ccn2)C1` [Example 11, 1-[3-(4-chloro-2-pyridyl)azetidin-1-yl]-4,4,4-trifluoro-butan-1-one], 50 to 250 nM; to `O=C(CCC(F)(F)F)N1CC(C2CCCC2)C1` [Example 5, 1-(3-cyclopentylazetidin-1-yl)-4,4,4-trifluoro-butan-1-one], 50 to 250 nM. For the compound `O=C(CCC(F)(F)F)N1CC(c2ccc(F)cn2)C1` [Example 9, 4,4,4-trifluoro-1-[3-(5-fluoro-2-pyridyl)azetidin-1-yl]butan-1-one], the EC50 lay within 500 to 1000 nM. As to `O=C(CCC(F)(F)F)N1CC(C2CCC(F)(F)CC2)C1` [Example 40, 1-(3-(4,4-difluorocyclohexyl)azetidin-1-yl)-4,4,4-trifluorobutan-1-one], the EC50 lay in the range of 50 to 250 nM. Consider `O=C(CCC(F)(F)F)N1CC(c2ccc(F)c(F)c2)C1` [Example 27, 1-[3-(3,4-difluorophenyl)azetidin-1-yl]-4,4,4-trifluoro-butan-1-one], for which the EC50 was below 50 nM.
